{"source": "patent US10334869B2", "about": "“Method for increasing concentration of avenanthramides in oats” (HER MAJESTY THE QUEEN IN RIGHT OF CANADA, AS REPRESENTED BY …, priority 2009, dated 2019)", "key": {"dormant oat VAO-48": {"tested_on": "dormant oat VAO-48", "assay": "CaCl2 in anaerobic steep water, avenanthramide accumulation during false malting of VAO-48", "assay_type": "in vivo", "details": "for All others / Avenanth A / Avenanth B / Avenanth C / Total Avenanth: four days 30° C., avenanthramide A equivalents", "method": "(§1) In a third method, samples (10 μl) were injected into a C18 reversed-phase column (Zorbax Stable™ bond C18, 3.5 μm, 4.6 mm×150 mm) maintained at 30° C. Solvents for HPLC were A: methanol, B: water and C: 0.5M formic acid. The solvent gradient (vol. %) consisted of 45A:45B:10C, linearly increasing to 55A:35B:10C over 24 min, and linearly increasing to 70A:20B:10C over 9 min, then reaching 95A:5C over 3 min and holding for 3 min. The solvent gradient was brought back to original conditions over 3 min, allowed equilibrating for 3 min.\n(§2) Individual avenanthramides were quantified by determining the peak areas at 330 nm relative to an external authentic avenanthramide A standard and expressed as avenanthramide A weight equivalents. Total avenanthramides were calculated by summing all the individual avenanthramide quantities calculated as avenanthramide A weight equivalents and expressed as parts per million (ppm) avenanthramide A equivalents on a dry weight basis.\n25 g samples of the hulless, hairless, dormant oat VAO-48 was anaerobically steeped in either water or various concentrations of USP-grade CaCl2.(H2O)2 solutions at 35° C. After steeping for 18 hours and air drying in a seed dryer for about four hours, the seeds were surface sterilized as above then ‘false malted” using Petri dishes (150×50 mm) in the dark at 30° C. in a controlled temperature oven for four days. The germination rate in all cases was less than 1% after four days. After malting the seeds were removed, dried at room temperature (forced air) for four hours then brought to constant weight by drying at 37° C. for ˜40 hours and stored at −20° C. until analyzed for avenanthramide content by the third method described above (μg avenanthramide A equivalents/g dry wt=ppm avenanthramide A), and compared to un-malted material."}, "non-dormant oat VAO-22": {"tested_on": "non-dormant oat VAO-22", "assay": "CaCl2 in anaerobic steep water, avenanthramide accumulation during false malting of VAO-22", "assay_type": "in vivo", "details": "for All others / Avenanth A / Avenanth B / Avenanth C / Total Avenanth: four days 30° C., avenanthramide A equivalents", "method": "as §1, §2\nA 1,300 g sample of VAO-22 hulless, hairless, non-dormant oat breeder's seed was used (84% germination rate after four days). The seeds were then heat treated as in Example 5. A 25 g sample was used as a control representing the un-malted seeds and stored at −20° C. until analyzed. The rest of the heat treated material was anaerobically steeped at 35° C. in either 1.0% or 2.0% Ca Cl2.(H2O)2 for 18 hours and air drying in a seed dryer for about four hours. The seeds were then surface sterilized as above and ‘false malted” in the dark at 30° C. in a controlled temperature oven for four days using Petri dishes (150×50 mm). After malting the seeds were removed, dried at room temperature (forced air) for four hours then brought to constant weight by drying at 37° C. for ˜40 hours and stored at −20° C. until analyzed for avenanthramide content by HPLC using the third method described above (μg avenanthramide A equivalents/g dry wt=ppm avenanthramide A), and compared to un-malted material."}, "[1]": {"tested_on": "colonic cancer cell lines", "details": "about 20 to 50 ppm; cited from earlier work"}, "smooth muscle cells [2]": {"tested_on": "smooth muscle cells", "details": "about 40 ppm; human; cited from earlier work"}, "smooth muscle cells [3]": {"tested_on": "smooth muscle cells", "details": "about 40 ppm; rat; cited from earlier work"}, "normal cell lines": {"tested_on": "normal cell lines", "details": "about 20 to 50 ppm; cited from earlier work"}, "heat treated oats": {"tested_on": "heat treated oats", "assay": "germination of heat treated oats incubated with gibberellin", "assay_type": "in vivo, oats (VAO-2)", "details": "100 ppm gibberellin, 5 days; two-phase dry heated oats"}}, "note": "Read-outs that look alike come from different tables or passages of the source."}
{"compound": "O.O.[Ca+2].[Cl-].[Cl-]", "note": "[CaCl2, CaCl2.(H2O)2]", "values": [{"measurement": "All others", "setting": "dormant oat VAO-48; 0.05% CaCl2 in steeping water", "result": "287.3 ± 30.9", "unit": "ppm"}, {"measurement": "Avenanth A", "setting": "dormant oat VAO-48; 0.05% CaCl2 in steeping water", "result": "37.7 ± 5.6", "unit": "ppm"}, {"measurement": "Avenanth B", "setting": "dormant oat VAO-48; 0.05% CaCl2 in steeping water", "result": "122.0 ± 14.8", "unit": "ppm"}, {"measurement": "Avenanth C", "setting": "dormant oat VAO-48; 0.05% CaCl2 in steeping water", "result": "81.5 ± 9.4", "unit": "ppm"}, {"measurement": "Total Avenanth", "setting": "dormant oat VAO-48; 0.05% CaCl2 in steeping water", "result": "528.4 ± 30.9", "unit": "ppm"}, {"measurement": "All others", "setting": "dormant oat VAO-48; 0.10% CaCl2 in steeping water", "result": "251.4 ± 10.4", "unit": "ppm"}, {"measurement": "Avenanth A", "setting": "dormant oat VAO-48; 0.10% CaCl2 in steeping water", "result": "27.2 ± 11.4", "unit": "ppm"}, {"measurement": "Avenanth B", "setting": "dormant oat VAO-48; 0.10% CaCl2 in steeping water", "result": "113.4 ± 5.8", "unit": "ppm"}, {"measurement": "Avenanth C", "setting": "dormant oat VAO-48; 0.10% CaCl2 in steeping water", "result": "75.7 ± 4.6", "unit": "ppm"}, {"measurement": "Total Avenanth", "setting": "dormant oat VAO-48; 0.10% CaCl2 in steeping water", "result": "467.7 ± 32.1", "unit": "ppm"}, {"measurement": "All others", "setting": "dormant oat VAO-48; 0.50% CaCl2 in steeping water", "result": "400.1 ± 0.3", "unit": "ppm"}, {"measurement": "Avenanth A", "setting": "dormant oat VAO-48; 0.50% CaCl2 in steeping water", "result": "59.9 ± 1.1", "unit": "ppm"}, {"measurement": "Avenanth B", "setting": "dormant oat VAO-48; 0.50% CaCl2 in steeping water", "result": "155.3 ± 2.3", "unit": "ppm"}, {"measurement": "Avenanth C", "setting": "dormant oat VAO-48; 0.50% CaCl2 in steeping water", "result": "126.4 ± 2.8", "unit": "ppm"}, {"measurement": "Total Avenanth", "setting": "dormant oat VAO-48; 0.50% CaCl2 in steeping water", "result": "741.7 ± 6.5", "unit": "ppm"}, {"measurement": "overall increase of avenanthramide concentration over un-malted seeds", "setting": "dormant oat VAO-48; 1% Ca+2", "result": "about 23.6 fold"}, {"measurement": "All others", "setting": "dormant oat VAO-48; 1.0% CaCl2 in steeping water", "result": "401.1 ± 15.4", "unit": "ppm"}, {"measurement": "Avenanth A", "setting": "dormant oat VAO-48; 1.0% CaCl2 in steeping water", "result": "68.7 ± 3.3", "unit": "ppm"}, {"measurement": "Avenanth B", "setting": "dormant oat VAO-48; 1.0% CaCl2 in steeping water", "result": "149.0 ± 8.2", "unit": "ppm"}, {"measurement": "Avenanth C", "setting": "dormant oat VAO-48; 1.0% CaCl2 in steeping water", "result": "138.1 ± 4.0", "unit": "ppm"}, {"measurement": "Total Avenanth", "setting": "dormant oat VAO-48; 1.0% CaCl2 in steeping water", "result": "757.0 ± 30.9", "unit": "ppm"}, {"measurement": "increase of avenanthramide concentration over steeping with no added Ca+2", "setting": "dormant oat VAO-48; 1% added Ca+2", "result": "approximately 1.7 fold"}, {"measurement": "avenanthramide B fold over initial value", "setting": "non-dormant oat VAO-22; 1% CaCl2", "result": 23.4, "unit": "fold"}, {"measurement": "avenanthramide B increase over initial value", "setting": "non-dormant oat VAO-22; 1% CaCl2", "result": "2,240%"}, {"measurement": "avenanthramide C fold over initial", "setting": "non-dormant oat VAO-22; 1% CaCl2", "result": 28.4, "unit": "fold"}, {"measurement": "avenanthramide C increase over initial", "setting": "non-dormant oat VAO-22; 1% CaCl2", "result": "2,735%"}, {"measurement": "total avenanthramide fold over initial", "setting": "non-dormant oat VAO-22; 1% CaCl2", "result": 24.1, "unit": "fold"}, {"measurement": "total avenanthramide levels relative to initial", "setting": "non-dormant oat VAO-22; 1% CaCl2", "result": "2,307%"}, {"measurement": "All others", "setting": "non-dormant oat VAO-22; 1.0% CaCl2 in steeping water", "result": "360.1 ± 2.4", "unit": "ppm"}, {"measurement": "Avenanth A", "setting": "non-dormant oat VAO-22; 1.0% CaCl2 in steeping water", "result": "27.0 ± 0.22", "unit": "ppm"}, {"measurement": "Avenanth B", "setting": "non-dormant oat VAO-22; 1.0% CaCl2 in steeping water", "result": "79.7 ± 0.26", "unit": "ppm"}, {"measurement": "Avenanth C", "setting": "non-dormant oat VAO-22; 1.0% CaCl2 in steeping water", "result": "65.2 ± 0.26", "unit": "ppm"}, {"measurement": "Total Avenanth", "setting": "non-dormant oat VAO-22; 1.0% CaCl2 in steeping water", "result": "532.0 ± 3.16", "unit": "ppm"}, {"measurement": "avenanthramide B fold over initial", "setting": "non-dormant oat VAO-22; 2% CaCl2", "result": 30.3, "unit": "fold"}, {"measurement": "avenanthramide B increase over initial value", "setting": "non-dormant oat VAO-22; 2% CaCl2", "result": "2,930%"}, {"measurement": "avenanthramide C fold over initial", "setting": "non-dormant oat VAO-22; 2% CaCl2", "result": 43.5, "unit": "fold"}, {"measurement": "avenanthramide C increase over initial", "setting": "non-dormant oat VAO-22; 2% CaCl2", "result": "4,252%"}, {"measurement": "total avenanthramide fold over initial", "setting": "non-dormant oat VAO-22; 2% CaCl2", "result": 31.9, "unit": "fold"}, {"measurement": "total avenanthramide levels relative to initial", "setting": "non-dormant oat VAO-22; 2% CaCl2", "result": "3,190%"}, {"measurement": "All others", "setting": "non-dormant oat VAO-22; 2.0% CaCl2 in steeping water", "result": "461.7 ± 8.8", "unit": "ppm"}, {"measurement": "Avenanth A", "setting": "non-dormant oat VAO-22; 2.0% CaCl2 in steeping water", "result": "46.7 ± 0.08", "unit": "ppm"}, {"measurement": "Avenanth B", "setting": "non-dormant oat VAO-22; 2.0% CaCl2 in steeping water", "result": "103.0 ± 0.06", "unit": "ppm"}, {"measurement": "Avenanth C", "setting": "non-dormant oat VAO-22; 2.0% CaCl2 in steeping water", "result": "100.1 ± 0.38", "unit": "ppm"}, {"measurement": "Total Avenanth", "setting": "non-dormant oat VAO-22; 2.0% CaCl2 in steeping water", "result": "711.4 ± 9.32", "unit": "ppm"}]}
{"compound": "O=C(/C=C/c1ccc(O)c(O)c1)Nc1ccc(O)cc1C(=O)O", "note": "[avenanthramide C]", "values": [{"measurement": "anti-inflammatory activity", "setting": "[1]", "result": "anti-inflammatory"}, {"measurement": "anti-proliferative activity", "setting": "[1]", "result": "anti-proliferative activity"}, {"measurement": "nitric oxide production", "setting": "smooth muscle cells [2]", "result": "inhibit"}, {"measurement": "proliferation of smooth muscle cells", "setting": "smooth muscle cells [2]", "result": "inhibit the proliferation"}, {"measurement": "nitric oxide production", "setting": "smooth muscle cells [3]", "result": "inhibit"}, {"measurement": "proliferation of smooth muscle cells", "setting": "smooth muscle cells [3]", "result": "inhibit the proliferation"}, {"measurement": "effect on normal cell lines", "setting": "normal cell lines", "result": "no effect"}]}
{"compound": "gibberellin", "values": [{"measurement": "germination", "setting": "heat treated oats", "result": "almost complete restoration of germination"}]}
